Values joined by “and” are separate entries in the source; they are usually repeats but may differ in a detail not shown here. Equal entries are not always repeated. Toxic doses and inconclusive results are not listed. The calls were made as follows: active = survival T/C of 150% or more; inactive = T/C below 125% in these data.
Tested on: CD2F1 mice, L1210 leukemia ip, survival T/C
Experiment: NCI In Vivo Anticancer Drug Screen. Data for tumor model L1210 Leukemia (intraperitoneal) in CD2F1 (CDF1) mice
Conditions: higher = longer survival
How it was run: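 Activity against a transplanted murine tumor was judged by comparing the compound group with a vehicle group. The outcome in the treated animals was divided by that in the controls.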

[1] = endpoint: mean survival time, dose: 100.0 mg/kg/injection, schedule: Q01DX001 (ip), vehicle: saline with Tween-80
[2] = endpoint: mean survival time, dose: 100.0 mg/kg/injection, schedule: Q04DX003 (ip), vehicle: saline with Tween-80
[3] = endpoint: mean survival time, dose: 200.0 mg/kg/injection, schedule: Q04DX003 (ip), vehicle: saline with Tween-80
[4] = endpoint: mean survival time, dose: 400.0 mg/kg/injection, schedule: Q04DX003 (ip), vehicle: saline with Tween-80

Measured: T/C

COC(=O)CC1(C(=O)OC)Nc2ccccc2C(=O)O1 (stereo not given)
inactive: [1] 94 % of control | endpoint: mean survival time, dose: 200.0 mg/kg/injection, schedule: Q01DX001 (ip), vehicle: saline with Tween-80 96 % of control | endpoint: mean survival time, dose: 400.0 mg/kg/injection, schedule: Q01DX001 (ip), vehicle: saline with Tween-80 96 % of control

CCCCCCCC/C=C\CCCCCCCC(=O)NCCN1CCCCC1
inactive: endpoint: mean survival time, dose: 75.0 mg/kg/injection, schedule: Q01DX001 (ip), vehicle: saline 100 % of control | endpoint: mean survival time, dose: 150.0 mg/kg/injection, schedule: Q01DX001 (ip), vehicle: saline 96 % of control | endpoint: mean survival time, dose: 300.0 mg/kg/injection, schedule: Q01DX001 (ip), vehicle: saline 96 % of control

CCCN(CCC)S(=O)(=O)c1ccc(NC(=O)OC2CCCCC2)cc1
inactive: endpoint: mean survival time, dose: 100.0 mg/kg/injection, schedule: Q01DX001 (ip), vehicle: saline 93 % of control | endpoint: mean survival time, dose: 200.0 mg/kg/injection, schedule: Q01DX001 (ip), vehicle: saline 98 % of control | endpoint: mean survival time, dose: 400.0 mg/kg/injection, schedule: Q01DX001 (ip), vehicle: saline 97 % of control

CCOc1ccc([NH-])c([NH-])c1.[Cl][Pt+2][Cl]
inactive: endpoint: mean survival time, dose: 2.5 mg/kg/injection, schedule: Q01DX009 (ip), vehicle: distilled water + Tween-80 100 % of control | endpoint: mean survival time, dose: 5.0 mg/kg/injection, schedule: Q01DX009 (ip), vehicle: distilled water + Tween-80 107 % of control | endpoint: mean survival time, dose: 10.0 mg/kg/injection, schedule: Q01DX009 (ip), vehicle: distilled water + Tween-80 91 % of control

N#Cc1c(F)c(F)c(C#N)c(F)c1F
inactive: endpoint: mean survival time, dose: 5.0 mg/kg/injection, schedule: Q04DX003 (ip), vehicle: Klucel (hydroxypropylcellulose) (HPC) 104 % of control | endpoint: mean survival time, dose: 10.0 mg/kg/injection, schedule: Q04DX003 (ip), vehicle: Klucel (hydroxypropylcellulose) (HPC) 106 % of control | endpoint: mean survival time, dose: 20.0 mg/kg/injection, schedule: Q04DX003 (ip), vehicle: Klucel (hydroxypropylcellulose) (HPC) 102 % of control | endpoint: mean survival time, dose: 40.0 mg/kg/injection, schedule: Q04DX003 (ip), vehicle: Klucel (hydroxypropylcellulose) (HPC) 104 % of control

c1cc(-c2ncc[nH]2)ccn1
inactive: endpoint: mean survival time, dose: 25.0 mg/kg/injection, schedule: Q01DX001 (ip), vehicle: saline with Tween-80 112 % of control | endpoint: mean survival time, dose: 50.0 mg/kg/injection, schedule: Q01DX001 (ip), vehicle: saline with Tween-80 96 % of control | [1] 104 % of control

N#CCc1ccc(N=Nc2c(N)nc(N)nc2N)cc1
inactive: [2] 92 % of control | [3] 104 % of control | [4] 101 % of control

CCCCCn1c(CN2CCCCC2)nc2c1-c1ccccc1C(=O)C2=O
inactive: [2] 96 % of control | [3] 103 % of control | [4] 103 % of control

Nc1nc(N)c(-c2cccc(Cl)c2)c(COc2ccc(NC(=O)Nc3cccc(S(=O)(=O)F)c3)cc2)n1
inactive: endpoint: mean survival time, dose: 37.5 mg/kg/injection, schedule: Q01DX001 (ip), vehicle: saline with Tween-80 100 % of control | endpoint: mean survival time, dose: 75.0 mg/kg/injection, schedule: Q01DX001 (ip), vehicle: saline with Tween-80 91 % of control | endpoint: mean survival time, dose: 150.0 mg/kg/injection, schedule: Q01DX001 (ip), vehicle: saline with Tween-80 92 % of control

CC(=O)Nc1cscc1NC(C)=O
inactive: endpoint: median survival time, dose: 12.5 mg/kg/injection, schedule: Q01DX009 (ip), vehicle: saline with Tween-80 100 % of control | endpoint: median survival time, dose: 25.0 mg/kg/injection, schedule: Q01DX009 (ip), vehicle: saline with Tween-80 105 % of control and 111 % of control | endpoint: median survival time, dose: 50.0 mg/kg/injection, schedule: Q01DX009 (ip), vehicle: saline with Tween-80 91 % of control and 103 % of control | endpoint: median survival time, dose: 100.0 mg/kg/injection, schedule: Q01DX009 (ip), vehicle: saline with Tween-80 100 % of control and 101 % of control | endpoint: median survival time, dose: 200.0 mg/kg/injection, schedule: Q01DX009 (ip), vehicle: saline with Tween-80 102 % of control and 103 % of control | endpoint: median survival time, dose: 400.0 mg/kg/injection, schedule: Q01DX009 (ip), vehicle: saline with Tween-80 103 % of control and 108 % of control

COc1ccc(NC(=O)Nc2ccc(Cl)cc2OC)cc1
inactive: endpoint: mean survival time, dose: 200.0 mg/kg/injection, schedule: Q04DX002 (ip), vehicle: saline with Tween-80 93 % of control | endpoint: mean survival time, dose: 400.0 mg/kg/injection, schedule: Q04DX002 (ip), vehicle: saline with Tween-80 90 % of control

CC(=O)OC1C(CO)OC(n2ccc3c(N)ncnc32)C1O (stereo not given)
inactive: endpoint: mean survival time, dose: 5.0 mg/kg/injection, schedule: Q01DX001 (ip), vehicle: saline 104 % of control | endpoint: mean survival time, dose: 10.0 mg/kg/injection, schedule: Q01DX001 (ip), vehicle: saline 117 % of control | endpoint: mean survival time, dose: 20.0 mg/kg/injection, schedule: Q01DX001 (ip), vehicle: saline 117 % of control | endpoint: mean survival time, dose: 40.0 mg/kg/injection, schedule: Q01DX001 (ip), vehicle: saline 110 % of control
